Assay results reported in patent US20130289070A1, “Use of Levocabastine for Modulating Generation of Pro-Inflammatory Cytokines” (Bausch & Lomb Incorporated, priority 2007, published 2013).

System: EoL-1 (human eosinophilic leukaemia cell line) cells
Experiment: TNF-α-induced cytokine release, non-differentiated EoL-1 cells (NO PMA) (Luminex)
Assay type: cell-based
Set-up: key to Fractalkine (NO PMA), p of decrement / IL-1α (NO PMA), p of decrement / IL-1β (NO PMA), p of decrement / IL-1ra (NO PMA), p of decrement / IL-5 (NO PMA), p of decrement / IL-7 (NO PMA), p of decrement / IL-8 (NO PMA), p of decrement / IP-10 (NO PMA), p of decrement / MCP-1 (NO PMA), p of decrement / MIP-1β (NO PMA), p of decrement / VEGF (NO PMA), p of decrement: ns = non significant
Experimental: EoL-1 (human eosinophilic leukaemia cell line) cells (Saito et al., 1985; Mayumi, 1992) were maintained in RPMI-1640 medium with L-glutamine supplemented with 10% (v/v) FBS at 37° C. in a humidified atmosphere with 5% CO2. Where indicated, 24 h before the experiment 25 ng/mL PMA ((phorbol 12-myristate 13-acetate, purchased from Sigma Aldrich) was added to the medium to induce eosinophil granulation and differentiation (Ohtsu et al., 1993; Zimmermann et al., 2000).
Half-million cells were aliquoted per point in a 24 well plate; each experiment was performed in triplicate and carried out in parallel with eosinophils differentiated and non differentiated with PMA (25 ng/mL, 24 h). Cells were suspended in low serum medium (RPMI-1640, 0.1% (v/v) FBS). TNF-α was used to induce cytokine secretion as previously described by Steube et al. (2000), and the net release was obtained by comparison to the basal (non-TNF-α treated). In the first experiment we evaluated the concentration and time relation between TNF-α stimulation and cytokine release. Therefore, 5, 10, and 25 ng/mL of TNF-α was administered to the cells at 0, ½, 1, 2, 3, 6, 12 and 24 h (data not shown). An aliquot of 150 μL of supernate was collected for cytokines' analysis. […] Differentiated and non-differentiated EoL-1 cells were exposed from 0.1 to 2.3 mM levocabastine ([…]Levocabastine 0.05% solution eye drops containing cyclodextrins, without benzalkonium chloride), and aliquots of the supernates were collected after 12 and 24 h. The content of cytokines at time zero was estimated by treating the cells with 400 nM calcimycin (A-23187), which is a cytolytic agent that frees all the mediators from the cytoplasmic compartment. In addition, for each experiment we tested the effect of the vehicle, which was added to the wells in a concentration equal to the maximum amount used for drug dilution.
Samples (supernates 12 and 24 h) in triplicate were analyzed using Luminex 200™ (Luminex, Austin, Tex.) and Beadview software v1.0 (Upstate Cell Signaling Solutions, Temecula, Calif.).
All data are presented as mean±SEM for the indicated number of experiments. Statistical significance was determined by Newman-Keuls test after ANOVA using GraphPad Prism (version 3.0; GraphPad Software Inc., San Diego, Calif., USA). P-values<0.05 were considered to be significant.

[1] = 24 h, FN + Levocabastine 2 mM vs FN
[2] = 24 h, Levocabastine 2 mM vs TNF-α

SMILES: C[C@@H]1CN([C@H]2CC[C@](C#N)(c3ccc(F)cc3)CC2)CC[C@]1(C(=O)O)c1ccccc1 [Levocabastine, levocabastine]
- IL-5 (NO PMA), p of decrement (12 h, TNF-α vs Lev 0.5 mM): ns
- IL-7 (NO PMA), p of decrement (12 h, TNF-α vs Lev 0.5 mM): ns
- IL-8 (NO PMA), p of decrement (12 h, TNF-α vs Lev 0.5 mM): ns
- IP-10 (NO PMA), p of decrement (12 h, TNF-α vs Lev 0.5 mM): ns
- MCP-1 (NO PMA), p of decrement (12 h, TNF-α vs Lev 0.5 mM): ns
- MIP-1β (NO PMA), p of decrement (12 h, TNF-α vs Lev 0.5 mM): ns
- VEGF (NO PMA), p of decrement (12 h, TNF-α vs Lev 0.5 mM): ns
- Fractalkine (NO PMA), p of decrement (12 h, TNF-α vs Lev 1.0 mM): ns
- IL-1ra (NO PMA), p of decrement (12 h, TNF-α vs Lev 1.0 mM): ns
- IL-1α (NO PMA), p of decrement (12 h, TNF-α vs Lev 1.0 mM): ns
- IL-1β (NO PMA), p of decrement (12 h, TNF-α vs Lev 1.0 mM): ns
- IL-5 (NO PMA), p of decrement (12 h, TNF-α vs Lev 1.0 mM): ns
- IL-7 (NO PMA), p of decrement (12 h, TNF-α vs Lev 1.0 mM): ns
- IL-8 (NO PMA), p of decrement (12 h, TNF-α vs Lev 1.0 mM): ns
- IP-10 (NO PMA), p of decrement (12 h, TNF-α vs Lev 1.0 mM): ns
- MCP-1 (NO PMA), p of decrement (12 h, TNF-α vs Lev 1.0 mM): ns
- MIP-1β (NO PMA), p of decrement (12 h, TNF-α vs Lev 1.0 mM): ns
- VEGF (NO PMA), p of decrement (12 h, TNF-α vs Lev 1.0 mM): ns
- Fractalkine (NO PMA), p of decrement (12 h, TNF-α vs Lev 2.3 mM): ns
- IL-1ra (NO PMA), p of decrement (12 h, TNF-α vs Lev 2.3 mM): ns
- IL-1α (NO PMA), p of decrement (12 h, TNF-α vs Lev 2.3 mM): ns
- IL-1β (NO PMA), p of decrement (12 h, TNF-α vs Lev 2.3 mM): ns
- IL-5 (NO PMA), p of decrement (12 h, TNF-α vs Lev 2.3 mM): ns
- IL-7 (NO PMA), p of decrement (12 h, TNF-α vs Lev 2.3 mM): ns
- IL-8 (NO PMA), p of decrement (12 h, TNF-α vs Lev 2.3 mM): ns
- IP-10 (NO PMA), p of decrement (12 h, TNF-α vs Lev 2.3 mM): ns
- MCP-1 (NO PMA), p of decrement (12 h, TNF-α vs Lev 2.3 mM): ns
- MIP-1β (NO PMA), p of decrement (12 h, TNF-α vs Lev 2.3 mM): ns
- VEGF (NO PMA), p of decrement (12 h, TNF-α vs Lev 2.3 mM): ns
- MIP-1α (NO PMA), change of secretion (12 h, TNF-α vs Lev 0.1-2.3 mM): concentration dependent increase of
- MIP-1α (NO PMA), p of increase (12 h, TNF-α vs Lev 0.1-2.3 mM): cytokine secretion p < 0.01
- RANTES (NO PMA), change of secretion (12 h, TNF-α vs Lev 0.1-2.3 mM): increase of cytokine secretion
- RANTES (NO PMA), p of increase (12 h, TNF-α vs Lev 0.1-2.3 mM): < 0.001
- Fractalkine (NO PMA), p of decrement [1]: ns
- G-CSF (NO PMA), p of decrement [1]: ns
- GM-CSF (NO PMA), p of decrement [1]: ns
- IL-1ra (NO PMA), p of decrement [1]: P < 0.001
- IL-1α (NO PMA), p of decrement [1]: ns
- IL-1β (NO PMA), p of decrement [1]: ns
- IL-5 (NO PMA), p of decrement [1]: ns
- IL-6 (NO PMA), p of decrement [1]: P < 0.001
- IL-7 (NO PMA), p of decrement [1]: ns
- IL-8 (NO PMA), p of decrement [1]: P < 0.001
- IL-10 (NO PMA), p of decrement [1]: ns
- IL-12p40 (NO PMA), p of decrement [1]: P < 0.05
- IP-10 (NO PMA), p of decrement [1]: ns
- MCP-1 (NO PMA), p of decrement [1]: Increase
- MIP-1α (NO PMA), p of decrement [1]: Increase
- MIP-1β (NO PMA), p of decrement [1]: ns
- RANTES (NO PMA), p of decrement [1]: Increase
- TGF-α (NO PMA), p of decrement [1]: ns
- VEGF (NO PMA), p of decrement [1]: P < 0.001
- Fractalkine (NO PMA), p of decrement [2]: ns
- G-CSF (NO PMA), p of decrement [2]: ns
- GM-CSF (NO PMA), p of decrement [2]: ns
- IL-1ra (NO PMA), p of decrement [2]: P < 0.001
- IL-1α (NO PMA), p of decrement [2]: ns
- IL-1β (NO PMA), p of decrement [2]: ns
- IL-5 (NO PMA), p of decrement [2]: ns
- IL-6 (NO PMA), p of decrement [2]: P < 0.001
- IL-7 (NO PMA), p of decrement [2]: ns
